{"source": "patent US20090253721A1", "about": "“Combined treatment with radiation and an epidermal growth factor receptor kinase inhibitor” (priority 2004, published 2009)", "key": {"[1]": {"system": "UM-SCC6 and H226 cell lines", "assay": "Cell cycle analysis by flow cytometry (propidium iodide)", "type": "cell-based, human", "protocol": "Cells were harvested after 72 hours exposure of erlotinib, 24 hours exposure to 6 Gy radiation, or in combination. […] After removal of ethanol by centrifugation, cells were then incubated with phosphate-citric acid buffer [0.2 M Na2HPO4 (pH 7.8), and 4 mM citric acid] at room temperature for 45 min. After centrifugation, cells were then stained with a solution containing 33 μg/ml PI (propidium iodide), 0.13 mg/ml RNase A, 10 mM EDTA, and 0.5% Triton X-100 at 4° C. for 24 hours. Stained nuclei were analyzed for DNA-PI fluorescence using a Becton Dickinson FACScan flow cytometer. Resulting DNA distributions were analyzed by Modfit (Verity Software House, Inc., Topsham, Me.) for the proportion of cells in sub-G0, G1, S, and G2-M phases of the cell cycle."}, "[2]": {"system": "HNSCC and NSCLC cell lines", "assay": "Apoptosis by fluorescein labeled caspase inhibitor (caspase activity), cell lines pooled", "type": "cell-based, human", "settings": "erlotinib alone 1 μM x 48 hrs", "protocol": "(§1) Cells were seeded in 100-mm dishes at a density of 6×10^5 cells per plate and upon treatment, were harvested by trypsinization, centrifuged, and the cell pellet re-suspended to a final concentration of 2×10^6 cells/ml. Caspase activity was analyzed by fluorescence spectroscopy according to the manufacturer's protocol (Chemicon International). Briefly, the 300 μL of cells were incubated with 1× Fluorescein labeled pan-caspase inhibitor FAM-VAD-FMK (Ekert, P. G., et al. (1999) Cell Death Differ. 6(11):1081-6) at 37° C. for 1 hr in a humidified atmosphere of 5% CO2. Cells were then washed twice with wash buffer, finally resuspended in 320 μL PBS. A 100 μL aliquot of the cell suspension was transferred to a black 96-well plate in triplicate. Fluorescence was analyzed on a SpectraMax fluorescence plate reader at 550 nm excitation and 600 nm emission wavelengths."}, "H226 cells [3]": {"system": "H226 cells", "assay": "Apoptosis by caspase activity, H226", "type": "cell-based, human", "settings": "erlotinib 1 μM combined with radiation 6 Gy", "protocol": "as §1"}, "UM-SCC1 cells [4]": {"system": "UM-SCC1 cells", "assay": "Apoptosis by caspase activity, UM-SCC1", "type": "cell-based, human", "settings": "erlotinib 1 μM combined with radiation 6 Gy", "protocol": "as §1"}, "UM-SCC6 cells [5]": {"system": "UM-SCC6 cells", "assay": "Apoptosis by caspase activity, UM-SCC6", "type": "cell-based, human", "settings": "erlotinib 1 μM combined with radiation 6 Gy, p<0.05", "protocol": "as §1"}, "UM-SCC1 cells [6]": {"system": "UM-SCC1 cells", "assay": "PARP cleavage by western blot, UM-SCC1", "type": "cell-based, human", "protocol": "(§2) Following treatment, cells were lysed with RIPA buffer and sonicated in complete proteinase inhibitor cocktail (Roche) and sodium orthovanadate. Fifteen μg of protein extracts were mixed with SDS sample buffer and electrophoresed onto a 10% SDS-polyacrylamide gel under reducing conditions. The separated proteins were transferred onto nitrocellulose membranes (Amersham Pharmacia Biotech, Piscataway, N.J.). The membrane was incubated for 1 hour in blocking buffer (Tris-buffered saline with 0.1% Tween (TBS-T) and 5% nonfat dry milk). The membranes were then incubated with specific primary antibodies. After washing three times with TBS-T buffer, the membrane was incubated with horseradish peroxidase-linked secondary antibody (Amersham Pharmacia Biotech, Piscataway, N.J.) at 1:5000 dilution for 1 hour at room temperature. The signals were visualized with the ECL+ detection system and autoradiography."}, "UM-SCC6 cells [7]": {"system": "UM-SCC6 cells", "assay": "PARP cleavage by western blot, UM-SCC6", "type": "cell-based, human", "settings": "erlotinib/radiation combination, data not shown"}, "Rad51": {"system": "Rad51", "assay": "Radiation-induced Rad51 expression, immunoblot", "type": "cell-based, human", "settings": "pretreated with 1 μM erlotinib for 24 hrs; H226 and UM-SCC6; 6 Gy", "protocol": "as §2"}, "UM-SCC1 cells [8]": {"system": "UM-SCC1 cells", "assay": "Radiation clonogenic survival, UM-SCC1", "type": "cell-based, human", "settings": "erlotinib 0.1 μM for 3 days before irradiation, 3, 6, and 9 Gy (p<0.01)", "description": "(§3) Survival following radiation exposure was defined as the ability of the cells to maintain their clonogenic capacity and to form colonies. Briefly, after exposure to radiation, cells were trypsinized, counted and seeded for colony formation in 35-mm dishes at 50-5000 cells/dish. After incubation intervals of 14-21 days, colonies were stained with crystal violet and manually counted. Colonies consisting of 50 cells or more were scored, and 5 replicate dishes containing 10-150 colonies/dish were counted for each treatment. Experiments were performed in duplicate."}, "H226 cells [9]": {"system": "H226 cells", "assay": "Radiation clonogenic survival, H226", "type": "cell-based, human", "settings": "erlotinib 0.1 μM for 3 days before irradiation, 6 and 9 Gy (p<0.05)", "description": "as §3"}, "PCNA": {"system": "PCNA", "assay": "Immunohistochemical determination of PCNA in H226 xenografts", "type": "in vivo, athymic mice"}, "[10]": {"system": "Egr-1, CXCL1, and IL-1β expression", "assay": "Validation of gene expression by quantitative RT-PCR and western blot", "type": "cell-based, human", "settings": "UM-SCC6; erlotinib 1.0 μM x 24 hrs pretreatment, 6 Gy", "protocol": "as §2\nTo further validate the microarray findings, we performed quantitative real-time PCR (QPCR) using the SYBR green dye as previously described (Kleer, C. G., et al. (2003) Proc. Natl. Acad. Sci. USA 100(20):11606-11611). Briefly, 1 μg of total RNA isolated from each sample was reverse transcribed into first strand cDNA. Threshold levels were set for each experiment during the exponential phase of the PCR reaction using the SDS v 1.7 software (Applied Biosystems), and the quantity of DNA in each sample was calculated by interpolating its Ct value versus a standard curve of Ct values obtained from serially diluted cDNA from a mixture of all of the samples using Microsoft Excel. All standard curves had R2 values ≧0.99 over three orders of magnitude. The calculated quantity of the target gene for each sample was then divided by the average calculated quantity of the housekeeping genes glyceraldehyde-3 phosphate dehydrogenase (GAPD) and hydroxymethylbilane synthase (HMBS) corresponding to each sample to give a relative expression of the target gene for each sample. All oligonucleotide primers were synthesized by Integrated DNA Technologies. […]"}, "refractory NSCLC": {"system": "refractory NSCLC", "settings": "refractory NSCLC patients receiving erlotinib; cited from earlier work"}, "H226 xenografts": {"system": "H226 xenografts", "assay": "Tumor growth in athymic nude mice, H226 xenografts", "description": "(§4) Erlotinib was administered by oral gavage once daily for 3 weeks. Radiation treatment was delivered twice a week for 3 weeks using custom mouse jigs designed to expose only the tumor bed to radiation.\n(§5) Combination studies determining apoptosis induction were evaluated using Student's t test with the resultant P value representing a two-sided test of statistical significance."}, "UM-SCC6 xenografts": {"system": "UM-SCC6 xenografts", "assay": "Tumor growth in athymic nude mice, UM-SCC6 xenografts", "description": "as §4, §5"}, "[11]": {"settings": "erlotinib alone 0.8 mg daily oral gavage, 3 weeks"}, "[12]": {"settings": "erlotinib combined with radiation (2 Gy twice per week), 55-day observation, p<0.05"}}}
{"smiles": "C#Cc1cccc(Nc2ncnc3cc(OCCOC)c(OCCOC)cc23)c1", "note": "[erlotinib, [6,7-bis(2-methoxyethoxy)-4-quinazolin-4-yl]-(3-ethynylphenyl) amine]", "values": [{"measurement": "S phase fraction", "setting": "[1]; erlotinib (0.1 μM) combined with radiation (6 Gy)", "result": "further reduction in the S phase fraction"}, {"measurement": "cell cycle phase distribution, G1", "setting": "[1]; erlotinib alone (0.1 μM)", "result": "accumulation of cells in G1"}, {"measurement": "number of cells in S phase", "setting": "[1]; erlotinib alone (0.1 μM)", "result": "reduced the number of cells in S phase"}, {"measurement": "increase in apoptosis as determined by caspase activity", "setting": "[2]", "result": "10-25%"}, {"measurement": "increase in apoptosis, combined treatment", "setting": "H226 cells [3]", "result": "additive increase in apoptosis"}, {"measurement": "increase in apoptosis, combined treatment", "setting": "UM-SCC1 cells [4]", "result": "additive increase in apoptosis"}, {"measurement": "increase in apoptosis induction, combined treatment", "setting": "UM-SCC6 cells [5]", "result": "supra-additive increase in apoptosis induction"}, {"measurement": "PARP cleavage", "setting": "UM-SCC1 cells [6]; erlotinib 1 μM combined with radiation 6 Gy, UM-SCC1", "result": "Further increase in PARP cleavage"}, {"measurement": "PARP cleavage", "setting": "UM-SCC1 cells [6]; erlotinib alone 1 μM, 10 and 24 hours following treatment", "result": "modest PARP cleavage"}, {"measurement": "enhancement in PARP cleavage", "setting": "UM-SCC6 cells [7]", "result": "even more pronounced"}, {"measurement": "radiation-induced increase in Rad51 expression", "setting": "Rad51", "result": "attenuated significantly"}, {"measurement": "radiosensitization (reduction in clonogenic survival)", "setting": "UM-SCC1 cells [8]", "result": "modest but consistent radiosensitization"}, {"measurement": "radiosensitization (reduction in clonogenic survival)", "setting": "H226 cells [9]", "result": "modest but consistent radiosensitization"}, {"measurement": "number of proliferating cells (PCNA staining)", "setting": "PCNA; combined erlotinib/radiation", "result": "smallest"}, {"measurement": "number of proliferating cells (PCNA staining)", "setting": "PCNA; erlotinib alone", "result": "intermediate"}, {"measurement": "radiation-induced enhancement of CXCL1 expression", "setting": "[10]", "result": "inhibited"}, {"measurement": "radiation-induced enhancement of Egr-1 expression", "setting": "[10]", "result": "inhibited"}, {"measurement": "radiation-induced enhancement of IL-1β expression", "setting": "[10]", "result": "inhibited"}, {"measurement": "survival", "setting": "refractory NSCLC", "result": "survival extension"}, {"measurement": "tumor growth", "setting": "H226 xenografts; [11]", "result": "modest inhibition of tumor growth"}, {"measurement": "tumor growth inhibition, nature of combination effect", "setting": "H226 xenografts; [12]", "result": "synergistic"}, {"measurement": "tumor growth", "setting": "UM-SCC6 xenografts; [11]", "result": "modest inhibition of tumor growth"}, {"measurement": "tumor growth inhibition, nature of combination effect", "setting": "UM-SCC6 xenografts; [12]", "result": "additive"}]}
